Measurements published in patent publication US20180282662A1, “Process” (GIVAUDAN SA, priority 2014, published 2018).
Like-named read-outs stand apart in the source and are kept apart here.

Key:
[1] = Susceptibility to enzymatic degradation to the benzoic acid derivative; type: in vitro ADME
[2] = tested on: reproductive organs of dogs; settings: dog, in vivo; cited from earlier work
[3] = dogs; cited from earlier work
mice = settings: mouse, in vivo; cited from earlier work
[4] = rats; cited from earlier work
primates = settings: cited from earlier work
guinea-pigs = settings: guinea pig, in vivo; cited from earlier work
[5] = tested on: reproductive organs of male rats; settings: rat, in vivo; cited from earlier work
male rats = settings: cited from earlier work
glucose synthesis = settings: in vitro; cited from earlier work
fatty acid synthesis = settings: in vitro; cited from earlier work

In the case of `Cc1cc(CC(C)C)ccc1CCC=O` [(I), 3-(4-Isobutyl-2-methylphenyl)propanal], the “enzymatic degradation to its benzoic acid derivative” value [1] is reported as “not susceptible”.

In the case of `CC(C=O)Cc1ccc(C(C)(C)C)cc1` (centres unmarked) [Lilial, 3-(4-tert-butylphenyl)-2-methylpropanal], the “toxic effects on the reproductive organs” value [2] is given as “toxic effects”, the “enzymatic degradation to tert-butyl benzoic acid (t-BBA)” value [3] is given as “enzymatically degraded” and the toxic effects (mice) is given as “No effects”. The “enzymatic degradation to tert-butyl benzoic acid (t-BBA)” value [4] was “enzymatically degraded”, the toxic effects (primates) was “No effects” and the toxic effects (guinea-pigs) was “No effects”. For the same compound, the “toxic effects on the reproductive organs” value [5] was “toxic effects”.

For `CC(C)(C)c1ccc(C(=O)O)cc1` [tert-butyl benzoic acid], the testicular effects (male rats) is given as “testicular effects”, the “inhibition of glucose synthesis” value (glucose synthesis) is given as “inhibit” and the “inhibition of fatty acid synthesis” value (fatty acid synthesis) is given as “inhibit”.
